One experiment addresses CDK1/Cyclin B1 (Homo sapiens, UniProt P06493). Kind of experiment: CDK1/Cyclin B1 Biochemical Assay (TR-FRET), 0.015 mM ATP. The following applies: 0.15 μM Rb (Ser780)-biotin substrate, pH7.0, 60 min preincubation, 120 min reaction, room temperature. The method, boiled down:
(§1)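 TR-FRET assay with 0.15 μM Rb (Ser780)-biotin substrate and 0-10 μM compound in 50 mM HEPES pH7.0, 50 mM MgCl2, 1 mM DTT. ATP was 0.060 mM for CDK2/Cyclin E1 and 0.015 mM for CDK1/Cyclin B1. Kinase was preincubated with compound 60 min, reacted 120 min at room temperature, and IC50 was fitted (four-parameter) from the 665/620 nm ratio.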

For another experiment, the target named is CDK2/Cyclin E1 (Homo sapiens, UniProt P24941). Kind of experiment: CDK2/Cyclin E1 Biochemical Assay (TR-FRET), 0.060 mM ATP. The following applies: 0.15 μM Rb (Ser780)-biotin substrate, pH7.0, 60 min preincubation, 120 min reaction, room temperature. A digest of the protocol: as §1

CDK1/Cyclin B1, sequence (P06493 whole entry): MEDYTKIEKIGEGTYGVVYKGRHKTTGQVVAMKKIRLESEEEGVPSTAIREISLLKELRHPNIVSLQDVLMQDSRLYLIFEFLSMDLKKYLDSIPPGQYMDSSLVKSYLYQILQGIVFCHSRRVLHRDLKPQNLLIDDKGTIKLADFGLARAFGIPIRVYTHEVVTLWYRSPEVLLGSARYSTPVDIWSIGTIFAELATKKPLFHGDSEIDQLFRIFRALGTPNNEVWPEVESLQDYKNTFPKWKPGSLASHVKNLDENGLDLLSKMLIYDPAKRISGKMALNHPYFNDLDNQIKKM
CDK1/Cyclin B1, sequence (P14635 whole entry partner): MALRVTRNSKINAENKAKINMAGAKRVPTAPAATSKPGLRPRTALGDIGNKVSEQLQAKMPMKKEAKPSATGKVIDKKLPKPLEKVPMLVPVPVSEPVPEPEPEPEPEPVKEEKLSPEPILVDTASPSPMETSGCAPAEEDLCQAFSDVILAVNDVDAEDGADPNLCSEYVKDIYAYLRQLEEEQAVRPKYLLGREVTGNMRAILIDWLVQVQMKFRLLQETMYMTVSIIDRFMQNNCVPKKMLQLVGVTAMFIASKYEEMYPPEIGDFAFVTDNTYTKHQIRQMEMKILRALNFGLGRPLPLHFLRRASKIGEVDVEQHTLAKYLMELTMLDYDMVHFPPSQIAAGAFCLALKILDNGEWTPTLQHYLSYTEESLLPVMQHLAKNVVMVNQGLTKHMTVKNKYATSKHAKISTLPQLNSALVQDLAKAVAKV

As for `COCC(C)NC(=O)O[C@H]1CC[C@@H](c2cc(Nc3ccc4c(c3F)CN(C)S4(=O)=O)n[nH]2)C1` (relative stereo) [Example 338, cis-3-(3-((4-fluoro-2-methyl-1,1-dioxido-2,3-dihydrobenzo[d]isothiazol-5-yl)amino)-1H-pyrazol-5-yl)cyclopentyl(1-methoxypropan-2-yl)carbamate], the IC50 on CDK1/Cyclin B1 is 544 nM; at CDK2/Cyclin E1, 13 nM.

With `Cc1cc(Nc2cc([C@@H]3CC[C@H](OC(=O)NC(C)C)C3)[nH]n2)cc2c1N(C)S(=O)(=O)C2` (relative stereo) [Example 245, cis-3-(3-((1,7-dimethyl-2,2-dioxido-1,3-dihydrobenzo[c]isothiazol-5-yl)amino)-1H-pyrazol-5-yl)cyclopentyl isopropylcarbamate], the figures for the IC50 on CDK1/Cyclin B1 and on CDK2/Cyclin E1 were 941 nM and 44 nM, respectively.

As to `CC1(NC(=O)O[C@H]2CC[C@@H](c3cc(Nc4ccc5c(c4F)CNS5(=O)=O)n[nH]3)C2)CC1` (single isomer, unassigned) [Example 140a, cis-3-(3-((4-fluoro-1,1-dioxido-2,3-dihydrobenzo[d]isothiazol-5-yl)amino)-1H-pyrazol-5-yl)cyclopentyl(1-methylcyclopropyl)carbamate], the IC50 amounted to 97 nM against CDK1/Cyclin B1 and 1.1 nM against CDK2/Cyclin E1.

Regarding `CC(C)NC(=O)O[C@H]1CC[C@@H](c2cc(Nc3ccc4c(c3F)CN(CC3CCNC3=O)S4(=O)=O)n[nH]2)C1` (relative stereo) [Example 110, cis-3-(3-((4-fluoro-1,1-dioxido-2-((2-oxopyrrolidin-3-yl)methyl)-2,3-dihydrobenzo[d]isothiazol-5-yl)amino)-1H-pyrazol-5-yl)cyclopentyl isopropylcarbamate], the IC50 against CDK1/Cyclin B1 was determined as 225 nM; against CDK2/Cyclin E1, 2.7 nM.

On to `CC[C@H](C)NC(=O)O[C@H]1CC[C@@H](c2cc(Nc3ccc4c(c3F)CS(=O)(=O)N4CC(F)(F)F)n[nH]2)C1` (single isomer, unassigned) [Example 265b], for which the concentration for half-maximal inhibition (IC50) against CDK1/Cyclin B1 is 26 nM; against CDK2/Cyclin E1 it was 2.4 nM.

Take `CC(C)NC(=O)O[C@H]1CC[C@@H](c2cc(Nc3ccc4c(c3F)CN(C3CCC3)S4(=O)=O)n[nH]2)C1` (relative stereo) [Example 67, cis-3-(3-((2-cyclobutyl-4-fluoro-1,1-dioxido-2,3-dihydrobenzo[d]isothiazol-5-yl)amino)-1H-pyrazol-5-yl)cyclopentyl isopropylcarbamate]: the figures for the IC50 against CDK1/Cyclin B1 and against CDK2/Cyclin E1 were 472 nM and 14 nM, respectively.

For `Cc1cc(Nc2cc([C@@H]3CC[C@H](OC(=O)NC(C)C)C3)[nH]n2)cc2c1S(=O)(=O)NC2` (relative stereo) [Example 26, cis-3-(3-((7-methyl-1,1-dioxido-2,3-dihydrobenzo[d]isothiazol-5-yl)amino)-1H-pyrazol-5-yl)cyclopentyl isopropylcarbamate], the results for the IC50 against CDK1/Cyclin B1 and on CDK2/Cyclin E1 were 60 nM and 2 nM, respectively.

For the compound `CC(C)NC(=O)O[C@H]1CC[C@@H](c2cc(Nc3ccc4c(c3F)C(C)NS4(=O)=O)n[nH]2)C1` (single isomer, unassigned) [Example 51b, cis-3-(3-((4-fluoro-3-methyl-1,1-dioxido-2,3-dihydrobenzo[d]isothiazol-5-yl)amino)-1H-pyrazol-5-yl)cyclopentyl isopropylcarbamate], the IC50 came out at 82 nM against CDK1/Cyclin B1 and 3.3 nM at CDK2/Cyclin E1.

In the case of `CN1c2ccc(Nc3cc([C@@H]4CC[C@H](OC(=O)NC5(C)CCOC5)C4)[nH]n3)c(F)c2CS1(=O)=O` (single isomer, unassigned) [Example 349a, cis-3-(3-((4-fluoro-1-methyl-2,2-dioxido-1,3-dihydrobenzo[c]isothiazol-5-yl)amino)-1H-pyrazol-5-yl)cyclopentyl(3-methyltetrahydrofuran-3-yl)carbamate], the IC50 on CDK1/Cyclin B1 was found to be 131 nM; against CDK2/Cyclin E1, 1.8 nM.

For `CC(C)NC(=O)N[C@H]1CC[C@@H](c2cc(Nc3ccc4c(c3)CNS4(=O)=O)n[nH]2)C1` (relative stereo) [Example 19, cis-1-(3-(3-((1,1-dioxido-2,3-dihydrobenzo[d]isothiazol-5-yl)amino)-1H-pyrazol-5-yl)cyclopentyl)-3-isopropylurea], the half-inhibitory concentration (IC50) was 1070 nM at CDK1/Cyclin B1 and 305 nM on CDK2/Cyclin E1.

As for `CN1c2ccc(Nc3cc([C@@H]4CC[C@H](OC(=O)NC5(CO)CCC5)C4)[nH]n3)cc2CS1(=O)=O` (relative stereo) [Example 386, cis-3-(3-((1-methyl-2,2-dioxido-1,3-dihydrobenzo[c]isothiazol-5-yl)amino)-1H-pyrazol-5-yl)cyclopentyl(1-(hydroxymethyl)cyclobutyl)carbamate], the IC50 at CDK1/Cyclin B1 is 28 nM; against CDK2/Cyclin E1, 1 nM.

For the compound `CN1c2ccc(Nc3cc([C@@H]4CC[C@H](OC(=O)NC5(C)CCOC5)C4)[nH]n3)c(F)c2CS1(=O)=O` (single isomer, unassigned) [Example 349d, cis-3-(3-((4-fluoro-1-methyl-2,2-dioxido-1,3-dihydrobenzo[c]isothiazol-5-yl)amino)-1H-pyrazol-5-yl)cyclopentyl(3-methyltetrahydrofuran-3-yl)carbamate], the concentration for half-maximal inhibition (IC50) against CDK1/Cyclin B1 came out at 152 nM; against CDK2/Cyclin E1, 1.4 nM.

Regarding `CC(C)NC(=O)O[C@H]1CC[C@@H](c2cc(Nc3ccc4c(c3F)S(=O)(=O)N(CCO)C4)n[nH]2)C1` (relative stereo) [Example 192, cis-3-(3-((7-fluoro-2-(2-hydroxyethyl)-1,1-dioxido-2,3-dihydrobenzo[d]isothiazol-6-yl)amino)-1H-pyrazol-5-yl)cyclopentyl isopropylcarbamate], the IC50 came out at 116 nM on CDK1/Cyclin B1 and 6 nM on CDK2/Cyclin E1.

On to `CC(C)NC(=O)O[C@H]1CC[C@@H](c2cc(Nc3ccc4c(c3)S(=O)(=O)NC4)n[nH]2)C1` (relative stereo) [Example 3, cis-3-(3-((1,1-dioxido-2,3-dihydrobenzo[d]isothiazol-6-yl)amino)-1H-pyrazol-5-yl)cyclopentyl isopropylcarbamate], for which the results for the IC50 at CDK1/Cyclin B1 and on CDK2/Cyclin E1 were 29 nM and 1.2 nM, respectively.

In the case of `CC(C)NC(=O)O[C@H]1CC[C@@H](c2cc(Nc3ccc4c(c3)C(C)S(=O)(=O)N4)n[nH]2)C1` (single isomer, unassigned) [Example 384d, cis-3-(3-((3-methyl-2,2-dioxido-1,3-dihydrobenzo[c]isothiazol-5-yl)amino)-1H-pyrazol-5-yl)cyclopentyl isopropylcarbamate], the figures for the IC50 against CDK1/Cyclin B1 and against CDK2/Cyclin E1 were 57 nM and 1.8 nM, respectively.

With `CC(C)NC(=O)O[C@H]1CC[C@@H](c2cc(Nc3ccc4c(c3F)CN(CC3CCN(C)C3=O)S4(=O)=O)n[nH]2)C1` (relative stereo) [Example 111, cis-3-(3-((4-fluoro-2-((1-methyl-2-oxopyrrolidin-3-yl)methyl)-1,1-dioxido-2,3-dihydrobenzo[d]isothiazol-5-yl)amino)-1H-pyrazol-5-yl)cyclopentyl isopropylcarbamate], the concentration for half-maximal inhibition (IC50) was determined as 225 nM on CDK1/Cyclin B1 and 2.1 nM against CDK2/Cyclin E1.

Take `CC[C@H](C)NC(=O)O[C@H]1CC[C@@H](c2cc(Nc3ccc4c(c3F)C(C)NS4(=O)=O)n[nH]2)C1` (single isomer, unassigned) [Example 54c]: the IC50 against CDK1/Cyclin B1 was found to be 40 nM; against CDK2/Cyclin E1, 0.3 nM.

On to `CC(C)NC(=O)O[C@H]1CC[C@@H](c2cc(Nc3cc4c(cc3F)NS(=O)(=O)C4)n[nH]2)C1` (single isomer, unassigned) [Example 292b, cis-3-(3-((6-fluoro-2,2-dioxido-1,3-dihydrobenzo[c]isothiazol-5-yl)amino)-1H-pyrazol-5-yl)cyclopentyl isopropylcarbamate], for which the IC50 at CDK1/Cyclin B1 stood at 457 nM; against CDK2/Cyclin E1, 5.2 nM.

Consider `CC(C)(C)NC(=O)O[C@@H]1CC[C@H](c2cc(Nc3cc4c(cc3F)S(=O)(=O)NC4)n[nH]2)C1` (single isomer, unassigned) [Example 395a], for which the values for the IC50 against CDK1/Cyclin B1 and on CDK2/Cyclin E1 were 191 nM and 1.6 nM, respectively.

As to `O=C(NCCC(F)(F)F)O[C@H]1CC[C@@H](c2cc(Nc3ccc4c(c3F)CNS4(=O)=O)n[nH]2)C1` (single isomer, unassigned) [Example 154a, cis-3-(3-((4-fluoro-1,1-dioxido-2,3-dihydrobenzo[d]isothiazol-5-yl)amino)-1H-pyrazol-5-yl)cyclopentyl(3,3,3-trifluoropropyl)carbamate], the IC50 was 187 nM against CDK1/Cyclin B1 and 2.3 nM against CDK2/Cyclin E1.

For the compound `O=C(NC1CCC1)O[C@H]1CC[C@@H](c2cc(Nc3ccc4c(c3)CS(=O)(=O)N4)n[nH]2)C1` (single isomer, unassigned) [Example 380a, cis-3-(3-((2,2-dioxido-1,3-dihydrobenzo[c]isothiazol-5-yl)amino)-1H-pyrazol-5-yl)cyclopentyl cyclobutylcarbamate], the figures for the IC50 at CDK1/Cyclin B1 and against CDK2/Cyclin E1 were 70 nM and 1.6 nM, respectively.

`CC1(NC(=O)O[C@H]2CC[C@@H](c3cc(Nc4cc5c(cc4F)S(=O)(=O)NC5)n[nH]3)C2)CC1` (single isomer, unassigned) [Example 44b, cis-3-(3-((6-fluoro-1,1-dioxido-2,3-dihydrobenzo[d]isothiazol-5-yl)amino)-1H-pyrazol-5-yl)cyclopentyl(1-methylcyclopropyl)carbamate]: the half-maximal inhibitory concentration (IC50) against CDK1/Cyclin B1 was found to be 91 nM; against CDK2/Cyclin E1, 2.5 nM.

`CC(C)NC(=O)O[C@H]1CC[C@@H](c2cc(Nc3ccc4c(c3)CNS4(=O)=O)n[nH]2)C1` (relative stereo) [Example 2, cis-3-(3-((1,1-dioxido-2,3-dihydrobenzo[d]isothiazol-5-yl)amino)-1H-pyrazol-5-yl)cyclopentyl isopropylcarbamate]: the IC50 came to 36.1 nM against CDK1/Cyclin B1 and 0.9 nM against CDK2/Cyclin E1.

For the origin of these results see patent publication US20260297080A1, “BICYCLIC COMPOUNDS AS CDK INHIBITORS” (BeOne Medicines I GmbH, priority 2022, published 2026).
